# Assay results as given in ChEMBL document CHEMBL5543137, “Design and Synthesis of Novel Ultralong-Acting Peptides as EDP-EBP Interaction Inhibitors for Pulmonary Fibrosis Treatment” (J Med Chem, 2024).
# Activity calls are given as the source filed them. The calls are words filed in the database; no cut-off is given here. Starred links: 1 amine or outer side, 2 acyl side, 3 side chain; linkers in the order of their positions; H or OH if unused. Non-standard residues stand in square brackets, D forms with d. Residues, ends and D or L forms follow the SMILES beside them. *: point of attachment. C20 diacid = O=C(O)CCCCCCCCCCCCCCCCCCC(=O)*; γGlu = O=C(O)[C@H](CCC(=O)[*:2])N[*:1]; Iva = CC[C@](C)(N)C(=O)O; PEG2 = NCCOCCOCCC(=O)O
# Key:
# [1] = test system: Mus musculus; assay: Antifibrotic activity against BLM-induced C57BL/6 mouse pulmonary fibrosis model assessed as reduction in Tpm1 gene expression at 240 ug/kg/day, sc administered for 2 weeks starting from 7 days post BLM induction and measured after 21 days post BLM induction by ScRNA-sequencing analysis; assay type: functional, organism-based; details: dose 240.0 µg/kg/day
# [2] = test system: Mus musculus; assay: Antifibrotic activity against BLM-induced C57BL/6 mouse pulmonary fibrosis model assessed as reduction in Vimentin expression at 240 ug/kg/day, sc administered for 2 weeks starting from 7 days post BLM induction and measured after 21 days post BLM induction in presence of GM6001; assay type: functional, organism-based; details: dose 240.0 µg/kg/day
# [3] = test system: Mus musculus; assay: Antifibrotic activity against BLM-induced C57BL/6 mouse pulmonary fibrosis model assessed as reduction in Tnc gene expression at 240 ug/kg/day, sc administered for 2 weeks starting from 7 days post BLM induction and measured after 21 days post BLM induction by ScRNA-sequencing analysis; assay type: functional, organism-based; details: dose 240.0 µg/kg/day
# [4] = test system: Mus musculus; assay: Antifibrotic activity against BLM-induced C57BL/6 mouse pulmonary fibrosis model assessed as reversal of body weight loss at 150 ug/kg, sc administered for 2 weeks starting from 7 days post BLM induction and measured after 21 days post BLM induction; assay type: functional, organism-based; details: dose 150.0 µg/kg
# [5] = test system: Mus musculus; assay: Antifibrotic activity against BLM-induced C57BL/6 mouse pulmonary fibrosis model assessed as reduction in Des gene expression at 240 ug/kg/day, sc administered for 2 weeks starting from 7 days post BLM induction and measured after 21 days post BLM induction by ScRNA-sequencing analysis; assay type: functional, organism-based; details: dose 240.0 µg/kg/day
# [6] = test system: A549; assay: Antifibrotic activity against TNFalpha-induced human A549 cells assessed as downregulation of Tgfb1 gene expression level at 10 uM incubated for 24 hrs by RT-qPCR analysis; assay type: functional, cell-based
# [7] = test system: Mus musculus; assay: Antifibrotic activity against BLM-induced C57BL/6 mouse pulmonary fibrosis model assessed as reduction in TIMP-1 expression at 240 ug/kg/day, sc administered for 2 weeks starting from 7 days post BLM induction and measured after 21 days post BLM induction in presence of GM6001; assay type: functional, organism-based; details: dose 240.0 µg/kg/day
# [8] = test system: Mus musculus; assay: Antifibrotic activity against BLM-induced C57BL/6 mouse pulmonary fibrosis model assessed as reversal of fibroblast activating effect at 240 ug/kg/day, sc administered for 2 weeks starting from 7 days post BLM induction and measured after 21 days post BLM induction; assay type: functional, organism-based; details: dose 240.0 µg/kg/day
# [9] = test system: Mus musculus; assay: Antifibrotic activity against BLM-induced C57BL/6 mouse pulmonary fibrosis model assessed as increase in ECM degradation at 240 ug/kg/day, sc administered for 2 weeks starting from 7 days post BLM induction and measured after 21 days post BLM induction by gene enrichment analysis; assay type: functional, organism-based; details: dose 240.0 µg/kg/day
# [10] = test system: Mus musculus; assay: Antifibrotic activity against BLM-induced C57BL/6 mouse pulmonary fibrosis model assessed as increase in monocytes in BALF at 30 to 240 ug/kg/day, sc administered for 2 weeks starting from 7 days post BLM induction and measured after 21 days post BLM induction; assay type: functional, organism-based; details: dose 30-240 µg/kg/day
# [11] = test system: Mus musculus; assay: Antifibrotic activity against BLM-induced C57BL/6 mouse pulmonary fibrosis model assessed as reduction in Mgp gene expression at 240 ug/kg/day, sc administered for 2 weeks starting from 7 days post BLM induction and measured after 21 days post BLM induction by ScRNA-sequencing analysis; assay type: functional, organism-based; details: dose 240.0 µg/kg/day
# [12] = test system: Mus musculus; assay: Antifibrotic activity against BLM-induced C57BL/6 mouse pulmonary fibrosis model assessed as increase in serum MMP-12 level at 30 to 240 ug/kg/day, sc administered for 2 weeks starting from 7 days post BLM induction and measured after 21 days post BLM induction; assay type: functional, organism-based; details: dose 30-240 µg/kg/day
# [13] = Tmax in Sprague-Dawley rat serum at 0.04 mg/kg, sc administered as single dose measured upto 10 days by LC-MS/MS method; assay type: ADME, organism-based; details: time < 10 day
# [14] = test system: Mus musculus; assay: Antifibrotic activity against BLM-induced C57BL/6 mouse pulmonary fibrosis model assessed as reduction in Thbs gene expression at 240 ug/kg/day, sc administered for 2 weeks starting from 7 days post BLM induction and measured after 21 days post BLM induction by ScRNA-sequencing analysis; assay type: functional, organism-based; details: dose 240.0 µg/kg/day
# [15] = test system: RAW264.7; assay: Upregulation of MMP-12 expression in mouse RAW264.7 cells at 10 uM incubated for 6 to 24 hrs; assay type: functional, cell-based; details: time 6-24 hrs
# [16] = test system: Mus musculus; assay: Antifibrotic activity against BLM-induced C57BL/6 mouse pulmonary fibrosis model assessed as reduction in lung inflammation at 150 ug/kg, sc administered for 2 weeks starting from 7 days post BLM induction and measured after 21 days post BLM induction by immunohistochemical staining based assay; assay type: functional, organism-based; details: dose 150.0 µg/kg
# [17] = test system: Mus musculus; assay: Antifibrotic activity against BLM-induced C57BL/6 mouse pulmonary fibrosis model assessed as reduction in Adamts2 gene expression at 240 ug/kg/day, sc administered for 2 weeks starting from 7 days post BLM induction and measured after 21 days post BLM induction by ScRNA-sequencing analysis; assay type: functional, organism-based; details: dose 240.0 µg/kg/day
# [18] = Binding affinity to EBP (unknown origin) by ITC method; set-up: species or system Homo sapiens
# [19] = test system: Mus musculus; assay: Antifibrotic activity against BLM-induced sc dosed C57BL/6 mouse pulmonary fibrosis model assessed as reversal of body weight indices administered for 2 weeks starting from 7 days post BLM induction and measured after 21 days post BLM induction; assay type: functional, organism-based; details: dose 30-240 µg/kg
# [20] = test system: TC-1; assay: Inhibition of EBP signaling pathway in TGFalpha induced mouse TC-1 cells assessed as reduction in AKT phosphorylation at 10 uM incubated for 24 hrs by Western blotting analysis; assay type: cell-based
# [21] = test system: Mus musculus; assay: Antifibrotic activity against BLM-induced C57BL/6 mouse pulmonary fibrosis model assessed as reduction in lung alpha-SMA expression at 240 ug/kg/day, sc administered for 2 weeks starting from 7 days post BLM induction and measured after 21 days post BLM induction by Western blotting analysis; assay type: functional, organism-based; details: dose 240.0 µg/kg/day
# [22] = test system: Mus musculus; assay: Antifibrotic activity against BLM-induced C57BL/6 mouse pulmonary fibrosis model assessed as reduction in FN expression at 240 ug/kg/day, sc administered for 2 weeks starting from 7 days post BLM induction and measured after 21 days post BLM induction in presence of Clo-Lip; assay type: functional, organism-based; details: dose 240.0 µg/kg/day
# [23] = test system: Mus musculus; assay: Antifibrotic activity against BLM-induced C57BL/6 mouse pulmonary fibrosis model assessed as reduction in ECM deposition in lungs at 30 to 240 ug/kg, sc administered for 2 weeks starting from 7 days post BLM induction and measured after 21 days post BLM induction; assay type: functional, organism-based; details: dose 30-240 µg/kg
# [24] = test system: Mus musculus; assay: Antifibrotic activity against BLM-induced C57BL/6 mouse pulmonary fibrosis model assessed as reduction in Fbn1 gene expression at 240 ug/kg/day, sc administered for 2 weeks starting from 7 days post BLM induction and measured after 21 days post BLM induction by ScRNA-sequencing analysis; assay type: functional, organism-based; details: dose 240.0 µg/kg/day
# [25] = test system: Mus musculus; assay: Antifibrotic activity against BLM-induced sc dosed C57BL/6 mouse pulmonary fibrosis model assessed as minimum effective dose administered for 2 weeks starting from 7 days post BLM induction and measured after 21 days post BLM induction; assay type: functional; details: C57BL/6, 336 h, dose 30-240 µg/kg, read-out: MED
# [26] = test system: Mus musculus; assay: Antifibrotic activity against BLM-induced C57BL/6 mouse pulmonary fibrosis model assessed as downregulation of TNFalpha gene expression in lung tissue at 150 ug/kg, sc administered for 2 weeks starting from 7 days post BLM induction and measured after 21 days post BLM induction by RT-qPCR assay; assay type: functional, organism-based; details: dose 150.0 µg/kg
# [27] = test system: Mus musculus; assay: Antifibrotic activity against BLM-induced C57BL/6 mouse pulmonary fibrosis model assessed as reduction in Tpm2 gene expression at 240 ug/kg/day, sc administered for 2 weeks starting from 7 days post BLM induction and measured after 21 days post BLM induction by ScRNA-sequencing analysis; assay type: functional, organism-based; details: dose 240.0 µg/kg/day
structure (smiles),measurement,setting,value
CC[C@](C)(NC(=O)[C@@H](NC(=O)CCOCCOCCNC(=O)CCOCCOCCNC(=O)CC[C@H](NC(=O)CCCCCCCCCCCCCCCCCCC(=O)O)C(=O)O)C(C)C)C(=O)NCC(=O)N[C@@H](CO)C(=O)N1CCC[C@H]1C(=O)N[C@@H](CO)C(=O)N[C@@H](C)C(=O)N[C@@H](CCC(N)=O)C(=O)N[C@@H](CCC(=O)O)C(=O)N[C@@H](CCC(=O)O)C(=O)N[C@@H](C)C(=O)N[C@@H](CO)C(=O)N1CCC[C@H]1C(=O)N[C@@H](C)C(N)=O ({C20 diacid-γGlu-PEG2-PEG2}-V[Iva]GSPSAQEEASPA-NH2),Activity,[1],Active
same,Activity,[2],inactive
same,Activity,[3],Active
same,Activity,[4],Active
same,Activity,[5],Active
same,Activity,[6],Active
same,Activity,[7],inactive
same,Activity,[8],Active
same,Activity,[9],Active
same,Activity,[10],Active
same,Activity,[11],Active
same,Activity,[12],Active
same,Tmax,[13],24 h
same,Activity,[14],Active
same,Activity,[15],inactive
same,Activity,[16],Active
same,Activity,[17],Active
same,Kd,[18],117 µM
same,Activity,[19],Dose-Dependent Effect
same,inhibition,[20],Active
same,Activity,[21],Active
same,Activity,[22],inactive
same,Activity,[23],Active
same,Activity,[24],Active
same,minimal effective dose,[25],0.03 mg/kg
same,Activity,[26],Active
same,Activity,[27],Active
